Laboratory results reported in the RepoRT retention time repository (doi:10.1016/j.jhazmat.2019.121712).

Assay: Thermo Scientific Acclaim RSLC 120 C18, 100 × 2.1 mm, 2.2 µm, 30 °C; A: 90% water + 10% methanol + 0.01% formic acid + 5 mM ammonium formate; B: methanol + 0.01% formic acid + 5 mM ammonium formate; gradient (min/%B) 0.1/1 3/39 14/99.9 16/99.9
Details: stereoisomer not certain

Q: With CCOc1ccc(C(C)(C)COCc2cccc(Oc3ccccc3)c2)cc1 as the compound, how does the LC retention time read?
A: 14.1 min

Q: With Nc1ccc(S(=O)(=O)Nc2nccs2)cc1 as the compound, how does the LC retention time read?
A: 3.63 min

Q: Which LC retention time does the source give for COc1cc(OC)nc(NC(=O)NS(=O)(=O)c2c(-c3nnn(C)n3)cnn2C)n1 here?
A: 7.62 min

Q: For CCCCCn1cc(C(=O)c2cccc3ccccc23)c2c(O)cccc21, which LC retention time is on record?
A: 12.5 min

Q: Which LC retention time does the source give for COC(=O)CCc1ccc(OCC(O)CNC(C)C)cc1 (stereo not given) here?
A: 5.18 min

Q: With CC1=C(C(=O)Nc2ccccc2)SCCO1 as the compound, how does the LC retention time read?
A: 7.46 min

Q: Which LC retention time does the source give for COc1ccc2c3c1OC1C(=O)CCC4C(C2)N(C)CCC314 (stereo not given) here?
A: 3.69 min

Q: Which LC retention time does the source give for C1=Cc2ccccc2Nc2ccccc21 here?
A: 10.1 min

Q: Which LC retention time does the source give for O=S(=O)(O)NC1CCCCC1 here?
A: 6.99 min

Q: For CC(C)OC(=O)Nc1ccccc1, which LC retention time is on record?
A: 8.11 min

Q: With CCCCOC(=O)c1ccccc1C(=O)OCCCC as the compound, how does the LC retention time read?
A: 12 min

Q: For Cc1cccc(C)c1NC(=O)C1CCCCN1C (stereo not given), which LC retention time is on record?
A: 4.66 min

Q: Which LC retention time does the source give for CC12Cc3cn[nH]c3CC1CCC1C2CCC2(C)C1CCC2(C)O (stereo not given) here?
A: 11.3 min

Q: Which LC retention time does the source give for COC(=O)C1=C(C)NC(C)=C(C(=O)OCCN(C)Cc2ccccc2)C1c1cccc([N+](=O)[O-])c1 (stereo not given) here?
A: 8.39 min

Q: For CC(Cc1ccccc1)NCCC(c1ccccc1)c1ccccc1 (stereo not given), which LC retention time is on record?
A: 8.89 min

Q: With CNC(C)C(=O)c1ccccc1 (stereo not given) as the compound, how does the LC retention time read?
A: 3.68 min

Q: Which LC retention time does the source give for COc1ccccc1OCC(O)COC(N)=O (stereo not given) here?
A: 5.21 min

Q: With CNC(=O)ON=C(C)C(C)S(C)(=O)=O (stereo not given) as the compound, how does the LC retention time read?
A: 3.66 min

Q: With C=CCN1CCC23c4c5ccc(O)c4OC2C(=O)CCC3(O)C1C5 (stereo not given) as the compound, how does the LC retention time read?
A: 3.44 min

Q: With CCNc1nc(NC(C)CC)nc(OC)n1 (stereo not given) as the compound, how does the LC retention time read?
A: 8.79 min

Q: With COc1cccc(C2(O)CCCCC2CN)c1 (stereo not given) as the compound, how does the LC retention time read?
A: 5.19 min

Q: With OC(c1ccccc1)(c1ccccc1)C1CCCCN1 (stereo not given) as the compound, how does the LC retention time read?
A: 5.78 min

Q: Which LC retention time does the source give for O=C1C(CCS(=O)c2ccccc2)C(=O)N(c2ccccc2)N1c1ccccc1 (stereo not given) here?
A: 7.94 min

Q: With CCCC(C(=O)c1ccccc1)N1CCCC1 (stereo not given) as the compound, how does the LC retention time read?
A: 5.08 min

Q: Which LC retention time does the source give for Cc1cc(=O)n(-c2ccccc2)n1C here?
A: 4.63 min

Q: Which LC retention time does the source give for CCc1ccc(C(=O)NN(C(=O)c2cc(C)cc(C)c2)C(C)(C)C)cc1 here?
A: 10.4 min

Q: For CCOP(=S)(OCC)SC1OCCOC1SP(=S)(OCC)OCC (stereo not given), which LC retention time is on record?
A: 12.1 min

Q: For CCCN(CCC)c1c([N+](=O)[O-])cc(S(N)(=O)=O)cc1[N+](=O)[O-], which LC retention time is on record?
A: 10.3 min

Q: Which LC retention time does the source give for COCCN(C(=O)CS(=O)(=O)O)c1c(C)cccc1C here?
A: 5.54 min

Q: For CNC1C(OC2C(OC3C(O)C(O)C(N=C(N)N)C(O)C3N=C(N)N)OC(C)C2(O)CO)OC(CO)C(O)C1O (stereo not given), which LC retention time is on record?
A: 1.26 min

Q: Which LC retention time does the source give for CCCc1nn(C)c2c(=O)[nH]c(-c3cc(S(=O)(=O)N4CCN(C5CCCC5)CC4)ccc3OCC)nc12 here?
A: 9.01 min

Q: For CCOP(=S)(OCC)ON=C(C#N)c1ccccc1, which LC retention time is on record?
A: 11.2 min

Q: With CC(C)NCC(O)c1ccc(N)c(C#N)c1 (stereo not given) as the compound, how does the LC retention time read?
A: 2.99 min

Q: For c1ccc(C2CN3CCSC3=N2)cc1 (stereo not given), which LC retention time is on record?
A: 3.68 min

Q: With CCCCOc1ccc(C(=O)OCCN(CC)CC)cc1 as the compound, how does the LC retention time read?
A: 11.3 min
